Data: patent US10080807B2 (LIPOMEDIX PHARMACEUTICALS LTD., priority 2014, dated 2018)

Experiments:
[1] = tested on: N87 human gastric tumor model; settings: N87 in footpad of nude mice; mitomycin C 5 mg/kg iv or prodrug 35 mg/kg iv days 6, 13; paclitaxel 15 mg/kg ip days 6, 10, 13, 17; mice with unacceptable toxicity removed
Description: An N87 human gastric tumor model was selected, and established by inoculating N87 tumor cells into the footpad of nude mice via subcutaneous (sc) injection. The day of sc injection with tumor cells was defined as study day zero.
The tumor size of the animals in each treatment group was measured.

[2] = tested on: C26 (colon carcinoma) mouse tumor model; experiment: Anti-tumor effect in colon carcinoma tumor model (Example 6); format: in vivo; settings: C26 ip in BALB/c mice; gemcitabine 100 mg/kg ip or paclitaxel 15 mg/kg ip days 5, 8, 12, 15, alone or with prodrug 30 mg/kg iv; 45 days
Description: C26 (colon carcinoma) mouse tumor model was used by injecting BALB/c F intraperitoneally with 1 million tumor cells.

[3] = tested on: N87 human gastric tumor model; experiment: Anti-tumor effect in gastric tumor model (Example 7); format: in vivo
Description: An N87 human gastric tumor model was selected, and established by inoculating 10^6 N87 tumor cells into the footpad of nude mice via subcutaneous (sc) injection. The day of sc injection with tumor cells was defined as study day zero.

[4] = tested on: human A375 melanoma subcutaneous tumor model; settings: prodrug 25 mg/kg iv days 11, 18; paclitaxel 15 mg/kg ip days 11, 14, 18, 21; alone or combined
Description: A human A375 melanoma subcutaneous tumor model was selected, and established by inoculating tumor cells into nude mice via subcutaneous (sc) injection. The day of sc injection with tumor cells was defined as study day zero.
The tumor size of the animals (n=6) in each treatment group was measured, and the median tumor size (in mm) is shown in FIG. 6 as a function of days post tumor inoculation.

[5] = tested on: subcutaneous 4T1 breast mouse tumor model; settings: day 5 iv; mitomycin C 6 mg/kg; prodrug 40 mg/kg; combination prodrug 30 mg/kg + liposome-entrapped doxorubicin 8 mg/kg; median tumor size
Description: A subcutaneous 4T1 breast mouse tumor model was selected, and established by inoculating tumor cells subcutaneously into BALB/c f mice. The day of sc injection with tumor cells was defined as study day zero.

| SMILES | tumor size (in words) [1] | survival (in words) [2] | animals tumor free at observation day 50 ([3]; N87 in footpad of nude mice, prodrug 25 mg/kg iv days 5, 12, paclitaxel 15 mg/kg ip days 5, 8, 12, 15) | reduction in tumor volume ([3]; individual tumor volumes measured to 48 days post inoculation (FIGS. 5C-5H)) | tumor growth (in words) [4] | tumor growth (in words) [5] |
| --- | --- | --- | --- | --- | --- | --- |
| CC(=O)O[C@H]1C(=O)[C@@]2(C)[C@H]([C@H](OC(=O)c3ccccc3)[C@]3(O)C[C@H](OC(=O)[C@H](O)[C@@H](NC(=O)c4ccccc4)c4ccccc4)C(C)=C1C3(C)C)[C@]1(OC(C)=O)CO[C@@H]1C[C@@H]2O [paclitaxel] | continuous increase in tumor size | fared poorly, with nearly all animals failing to survive the study period | two of eight animals | Reduction in tumor volume was not observed | either a shorter plateau period of attenuated tumor growth or an increase in tumor growth sooner than animals treated with the combination therapy | – |
| Nc1ccn([C@@H]2O[C@H](CO)[C@@H](O)C2(F)F)c(=O)n1 [gemcitabine, 2′-deoxy-2′,2′-difluoro-cytidine] | – | fared poorly, with nearly all animals failing to survive the study period | – | – | – | – |
| CO[C@@]12[C@H](COC(N)=O)C3=C(C(=O)C(C)=C(N)C3=O)N1C[C@@H]1N[C@@H]12 [mitomycin C] | continuous increase in tumor size | – | – | – | – | continued growth in tumor size |
